In ChEMBL document CHEMBL3045221, “A 2D image-based approach for modelling some glycogen synthase kinase 3 inhibitors” (Med Chem Res, 2007):

These molecules were tested against Glycogen synthase kinase-3 beta (Homo sapiens, UniProt P49841).
Glycogen synthase kinase-3 beta, sequence (P49841 whole entry): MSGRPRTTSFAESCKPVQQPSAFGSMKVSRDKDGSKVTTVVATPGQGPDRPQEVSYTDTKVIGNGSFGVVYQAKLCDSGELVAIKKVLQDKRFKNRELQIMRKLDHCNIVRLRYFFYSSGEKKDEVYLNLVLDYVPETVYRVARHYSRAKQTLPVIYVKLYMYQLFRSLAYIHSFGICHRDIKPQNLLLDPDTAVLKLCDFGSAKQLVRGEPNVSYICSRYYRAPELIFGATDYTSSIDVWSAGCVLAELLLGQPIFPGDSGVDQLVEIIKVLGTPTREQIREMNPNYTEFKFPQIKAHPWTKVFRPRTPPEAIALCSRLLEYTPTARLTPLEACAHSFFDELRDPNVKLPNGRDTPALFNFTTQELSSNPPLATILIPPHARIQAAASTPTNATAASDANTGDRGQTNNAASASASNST
Type: cell-based, Sf9
Description: Inhibition of GSK3beta (unknown origin) expressed in Sf9 cells using GS1 as substrate and [gamma32]ATP after 30 min by scinitllation counting
`CN1CCN(c2cnc(NCCNc3ccc([N+](=O)[O-])c(N)n3)nc2-c2ccc(Cl)cc2Cl)C(=O)C1` showed an IC50 of 3.98 nM.
In the case of `O=C1NC(=O)C(c2cnc3cccnn23)=C1c1cn2c3c(cccc13)CN(C(=O)N1CCCCC1)CC2` [BISARYLMALEIMIDE 1], the IC50 is reported as 0.708 nM.
With `O=C1NC(=O)C(c2cncc3ccoc23)=C1c1cn2c3c(cccc13)CN(C(=O)N1CCOCC1)CC2` [BISARYLMALEIMIDE 2] the IC50 was 0.794 nM.
Work on `CC(=O)NC1=NC(=O)/C(=C2\CCNC(=O)c3c2cc(Br)n3C(C)=O)N1` [HYMENIALDISINE 2] yielded an IC50 of 129 nM.
Molecule `CC(=O)O/N=C1/C(=C2/C(=O)Nc3cc(Cl)c(Cl)cc32)Nc2ccccc21` [INDIRUBIN 1] has an IC50 of 3.98 nM.
`O=C1Nc2ccc(Br)cc2/C1=C1/Nc2ccccc2/C1=N\O` [INDIRUBIN 2] was tested, and the IC50 was 5.01 nM.
For `O=C1NC(=O)C2=C1c1cn(c3ccccc13)CCOCCOCCOCCn1cc2c2ccccc21` [INDOLYLYLMALEIMIDE 2], the IC50 was 21.9 nM.
Work on `COc1ccc(Nc2nccc(-c3cnn4ncccc34)n2)cc1OC` [PYRAZOLOPYRIDAZINE 2] yielded a Ki of 12 nM.
In the case of `CN(C)CCNC(=O)c1ccc(/C=N/Nc2ncnc3c2cnn3-c2cccc3[nH]cnc23)cc1` [PYRAZOLOPYRIMIDINE 1], the IC50 is reported as 1.58 nM.
